Series [1] addresses Tryptophan 2,3-dioxygenase (Mus musculus) (UniProt P48776). In words: Inhibition of mouse TDO expressed in mouse mastocytoma P815B cells using L-Trptophan as substrate at 20 uM after overnight by HPLC. The class given is cell-based.
Series [2] is described as follows: Cytotoxicity against mouse mastocytoma P815B cells assessed as cell viability at 20 uM after overnight incubation by MTT assay. The conditions noted are these: for Activity: p815b, 20 µM; for viability at 20 µM: mastocytoma P815B cells, read-out: Activity. The class given is cell-based.
Series [3] concerns the target Indoleamine 2,3-dioxygenase 1 (Mus musculus) (UniProt P28776). In words: Inhibition of mouse IDO expressed in mouse mastocytoma P815B cells using L-Trptophan as substrate at 20 uM after overnight by HPLC. Format: cell-based.
In series [4] the target is T1, Indoleamine 2,3-dioxygenase 1 (Homo sapiens, UniProt P14902). Kind of series: Competitive inhibition of histidine-tagged human recombinant IDO expressed in bacterial strain BL21 AI using L-Trptophan as substrate measured at 490 nm wavelength after 6 min by colorimetric assay.
Target sequence in this assay (P14902 whole entry): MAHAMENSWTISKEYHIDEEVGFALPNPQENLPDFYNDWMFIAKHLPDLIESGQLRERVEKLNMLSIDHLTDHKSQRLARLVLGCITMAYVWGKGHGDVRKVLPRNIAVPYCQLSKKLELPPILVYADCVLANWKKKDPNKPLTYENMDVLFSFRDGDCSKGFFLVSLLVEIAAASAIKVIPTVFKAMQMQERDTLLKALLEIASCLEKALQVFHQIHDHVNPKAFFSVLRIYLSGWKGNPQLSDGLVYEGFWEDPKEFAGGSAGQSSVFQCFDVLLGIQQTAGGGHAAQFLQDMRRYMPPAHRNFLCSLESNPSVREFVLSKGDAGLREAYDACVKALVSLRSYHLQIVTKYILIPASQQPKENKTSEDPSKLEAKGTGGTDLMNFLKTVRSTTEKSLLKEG
In series [5] the target is T1, Indoleamine 2,3-dioxygenase 1. In words: Inhibition of histidine-tagged human recombinant IDO expressed in bacterial strain BL21 AI using L-Trptophan as substrate measured at 490 nm wavelength at 100 uM after 6 min by colorimetric assay.
Target sequence in this assay (P14902 whole entry, looked up): as the sequence (P14902 whole entry) above
For series [6] the target is unchanged. Kind of series: Uncompetitive inhibition of histidine-tagged human recombinant IDO expressed in Escherichia coli using L-Trptophan as substrate assessed as hypochromic effect by UV analysis.
Target sequence in this assay (P14902 whole entry, looked up): as the sequence (P14902 whole entry) above
The target is the same in series [7]. In words: Uncompetitive inhibition of histidine-tagged human recombinant IDO expressed in bacterial strain BL21 AI using L-Trptophan as substrate measured at 490 nm wavelength after 6 min by colorimetric assay.
Target sequence in this assay (P14902 whole entry): as above

The source made the active and inactive calls. The calls are words filed in the database; no cut-off is given here.

Sequence of Tryptophan 2,3-dioxygenase (Mus musculus) (P48776 whole entry): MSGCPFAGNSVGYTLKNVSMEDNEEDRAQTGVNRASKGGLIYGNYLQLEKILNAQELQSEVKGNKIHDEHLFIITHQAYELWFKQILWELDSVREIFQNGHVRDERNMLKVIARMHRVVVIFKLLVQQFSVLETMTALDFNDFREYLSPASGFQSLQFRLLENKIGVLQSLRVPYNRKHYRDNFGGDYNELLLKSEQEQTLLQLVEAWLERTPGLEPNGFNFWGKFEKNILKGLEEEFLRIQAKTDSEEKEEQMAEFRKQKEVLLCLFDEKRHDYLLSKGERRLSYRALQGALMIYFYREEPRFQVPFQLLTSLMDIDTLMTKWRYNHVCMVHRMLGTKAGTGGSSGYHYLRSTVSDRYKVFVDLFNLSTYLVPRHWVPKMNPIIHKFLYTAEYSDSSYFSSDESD
Sequence of Indoleamine 2,3-dioxygenase 1 (Mus musculus) (P28776 whole entry, looked up): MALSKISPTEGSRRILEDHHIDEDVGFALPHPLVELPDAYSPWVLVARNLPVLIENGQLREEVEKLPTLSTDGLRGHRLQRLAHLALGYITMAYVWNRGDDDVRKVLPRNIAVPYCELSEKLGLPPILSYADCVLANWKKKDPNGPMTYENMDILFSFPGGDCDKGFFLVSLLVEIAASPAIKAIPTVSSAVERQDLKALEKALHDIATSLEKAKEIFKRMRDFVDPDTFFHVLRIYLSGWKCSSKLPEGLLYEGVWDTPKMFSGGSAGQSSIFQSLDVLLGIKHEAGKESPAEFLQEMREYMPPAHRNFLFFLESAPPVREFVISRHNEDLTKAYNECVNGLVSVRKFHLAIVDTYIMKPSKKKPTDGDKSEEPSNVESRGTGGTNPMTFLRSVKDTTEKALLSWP

Turning to `Cc1ccc2[nH]c(C(=O)Cc3cccnc3)cc2c1`, the inhibition entry in series [1] was “inactive”. The Activity result in series [2] is recorded as “Non-toxic”.
On to `c1cncc(CCc2cc3ccccc3[nH]2)c1`, for which, in series [1], the inhibition entry is “inactive”. The viability at 20 µM in series [2] is 90%.
As to `Cn1c(C(=O)Cc2cccnc2)cc2cc(F)ccc21`, the inhibition entry in series [1] and in series [3] was “inactive” each time. The half-maximal inhibitory concentration (IC50) in series [4] is 92 µM. Also, the viability at 20 µM in series [2] was found to be 95%.
With `N#Cc1ccc(-n2nnc3ccccc32)cc1`, the inhibition in series [5] was > 50%.
Turning to `O=C(Cc1cccnc1)c1cc2ccccc2[nH]1`, the inhibition entry in series [1] is “inactive”. Also, the outcome in series [6] was Active. In addition, the inhibition in series [5] was > 50%. The Ki in series [7] was 190 µM. For the same compound, the Activity result in series [2] is reported as “Non-toxic”.
For `Cn1c(C(=O)Cc2cccnc2)cc2ccccc21`, the inhibition result in series [1] was “inactive”. For the same compound, the Activity entry in series [2] is listed as “Non-toxic”.
Regarding `OC(Cc1cccnc1)c1cc2ccccc2[nH]1` (configuration not stated), the inhibition entry in series [1] was “inactive”. Further, the viability at 20 µM in series [2] was determined as 90%.
On to `O=C(Cc1cccnc1)c1cc2cc([N+](=O)[O-])ccc2[nH]1`, for which the inhibition result in series [1] is “inactive”. Further, the viability at 20 µM in series [2] is 90%.
As to `O=C(Cc1cccnc1)c1cc2cc(Cl)ccc2[nH]1`, the inhibition entry in series [1] was “inactive”. In addition, the viability at 20 µM in series [2] was 90%.
As for `COc1ccc2[nH]c(C(=O)Cc3cccnc3)cc2c1`, the inhibition result in series [1] is “inactive”. The Activity entry in series [2] is recorded as “Non-toxic”.
In the case of `O=C(Nc1cccnc1)c1cc2ccccc2[nH]1`, the inhibition entry in series [1] was “inactive”. Further, in series [2], the viability at 20 µM came out at 75%.
Take `O=C(Cc1cccnc1)c1cc2cc(F)ccc2[nH]1`: in series [1], the inhibition entry was “inactive”. In addition, the Activity result in series [2] is “Non-toxic”.
As for `O=C(Cc1cccnc1)c1cc2c(F)cccc2[nH]1`, the inhibition result in series [1] was “inactive”. For the same compound, in series [2], the viability at 20 µM came to 80%.
`Cn1cc(C[C@H](N)C(=O)O)c2ccccc21` [(L)-1-METHYLTRYPTOPHAN]: in series [1], the inhibition result is “inactive”. Also, in series [2], the Activity result is reported as “Non-toxic”.

(Values after ChEMBL document CHEMBL1799908, “Discovery and preliminary SARs of keto-indoles as novel indoleamine 2,3-dioxygenase (IDO) inhibitors” (Eur J Med Chem, 2011).)
